Results reported in patent publication US11465998B2, “Therapeutic compounds and methods of use thereof” (Regents of the University of Minnesota, priority 2019, dated 2022).
“Also recorded” adds a separate entry of the source.

Experiments:
[1] = test system: RAW264.7 murine macrophages; test: Cytokine/chemokine induction in wild-type RAW264.7 murine macrophages (multiplexed immunoassay); type: cell-based; settings: wild-type RAW264.7 murine macrophage cell line
Procedure: (§1) Cytokine induction by 7e and 7f was examined in murine-derived cell lines. […] The absence of activity was not due to extensive plasma protein binding by re-examining under near-serum-free conditions.
(§2) Example 5: High-throughput screens in porcine blood: Curated compound collections were obtained from the Institute for Therapeutics Discovery & Development at the University of Minnesota. Compound transfers from source (80 nL of 10 mM stocks) to assay plates were performed using an Echo 550 acoustic liquid handler (Labcyte, Sunnyvale, Calif.). For most libraries, a target final concentration of 10 μM of compound (in a final volume of 80 μL for the assay described below) was achieved. Compound plates were hermetically sealed and stored at −80° C. until used. Fresh, heparin-anticoagulated porcine blood from healthy animals were obtained under USDA supervision from Midwest Research Swine, LLC (Glencoe, Minn.). 80 μL of hematocrit-enriched porcine blood (low-speed centrifugation, followed by resuspension in DMEM supplemented with 10% fetal bovine serum) was added to compound plates and incubated for 15 h. […] NF-κB translocation was assayed spectrophotometrically using an alkaline phosphatase-specific chromogen (present in HEK-detection medium as supplied by InvivoGen) at 620 nm using a SpectraMax M4 multimode microplate reader (Molecular Devices, Sunnyvale, Calif.). […] Example 7: Human NOD1/2-specific reporter gene assays (NF-κB induction), and TLR-2/-3/-4/-5/-7/-8/-9/STING/ISG counter-screens: The induction of NF-κB was quantified using human TLR-2/-3/-4/-5/-7/-8/-9/NOD-1/NOD-2/STING/ISG-specific, rapid-throughput, liquid handler-assisted reporter gene assays as previously described by us (Wu, W. et al. J. Med. Chem. 2010, 53, 3198-3213; Shukla, N. M. et al. J. Med. Chem. 2010, 53, 4450-4465; Agnihotri, G. et al. J. Med. Chem. 2011, 54, 1490-1510 and Ukani, R. et al. Bioorg. Med. Chem. Lett. 2012, 22, 293-295). […]

[2] = test system: macrophage cell line derived from TRIF/TRAM knockout mice (NR-9568); test: Cytokine/chemokine induction in TRIF/TRAM double-knockout cell line; type: cell-based; settings: TRIF/TRAM double-knockout murine cell line
Procedure: as §1, §2

human whole blood = test: Cytokine/chemokine induction in human whole blood; type: cell-based
[3] = test system: THP-1 NF-κB reporter cells; test: NF-κB translocation in THP-1 NF-κB reporter cells, alone or with TLR stimuli; type: cell-based, human; settings: for enhancement of NF-κB translocation response to TLR2 stimuli: concurrent exposure to compound and TLR2 agonist; for enhancement of NF-κB translocation response to TLR2 stimuli / enhancement of NF-κB translocation response to TLR4 stimuli / enhancement of NF-κB translocation response to TLR5 stimuli: data not shown; for enhancement of NF-κB translocation response to TLR4 stimuli: concurrent exposure to compound and TLR4 agonist; for enhancement of NF-κB translocation response to TLR5 stimuli: concurrent exposure to compound and TLR5 agonist; for enhancement of NF-κB translocation response to TLR7 stimuli: concurrent exposure to graded concentrations of compound and TLR7 agonist; for enhancement of NF-κB translocation response to TLR8 stimuli: concurrent exposure to graded concentrations of compound and TLR8 agonist
Description: Given that Rip2 activity is proximal to several of the components that constitute the multiprotein signaling complexes involved in innate immune signaling, and Rip2 participates in signaling through some, but not all, TLRs, it was of particular interest to examine if the benzimidazole-thiophene-2-carboxamide formula I compounds could synergize with other innate immune stimuli. […] THP-1 NF-κB reporter cells were concurrently exposed to graded concentrations of either 7e or 7f, and a variety of innate immune stimuli, including TLR-2, -3, -4, -5, -7, -8, and -9 agonists. An enhancement in NF-κB translocation was observed.

Compound | induction of chemokines and proinflammatory cytokines [1] | cytokine and chemokine induction [2] | induction of cytokines and chemokines (human whole blood) | enhancement of NF-κB translocation response to TLR2 stimuli [3] | enhancement of NF-κB translocation response to TLR4 stimuli [3] | enhancement of NF-κB translocation response to TLR5 stimuli [3] | enhancement of NF-κB translocation response to TLR7 stimuli [3] | enhancement of NF-κB translocation response to TLR8 stimuli [3]
CCCCCc1nc2ccccc2n1-c1csc(C(N)=O)c1 [Compound 7e, 4-(2-Pentyl-1H-benzo[d]imidazol-1-yl)thiophene-2-carboxamide] | potently immunostimulatory; also recorded: induction of chemokines and cytokines | abrogation of responsiveness | None of the small molecules (including 1, as well as the optimized, equipotent analogues 7e and 7f) showed any activity | absent | absent | evident | particularly pronounced; also recorded: enhancement of NF-κB translocation responses | particularly pronounced; also recorded: enhancement of NF-κB translocation responses; also recorded: distinctly biphasic
CCCCCCc1nc2ccccc2n1-c1csc(C(N)=O)c1 [Compound 7f, 4-(2-Hexyl-1H-benzo[d]imidazol-1-yl)thiophene-2-carboxamide] | potently immunostimulatory; also recorded: essentially identical to that of 7e | essentially identical to that of 7e | None of the small molecules (including 1, as well as the optimized, equipotent analogues 7e and 7f) showed any activity | absent | absent | evident | particularly pronounced | particularly pronounced
